This passage reports IC50 results from US20260176289A1, “SMALL MOLECULE INHIBITORS OF KRAS PROTEINS” (Merck Sharp & Dohme LLC, priority 2022, published 2026).

Like-named read-outs stand apart in the source and are kept apart here.

For one assay, the target named is KRAS-WT (Homo sapiens, UniProt P01116). Description: SOS-catalyzed nucleotide exchange assay (Procedure A, TR-FRET), KRAS-WT. The format is biochemical. As to conditions: nucleotide exchange, read-out: KRAS WT GNE IC50. In outline:
(§1)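 Compounds (10-point, 3-fold) were preincubated 60 min at room temperature with a biotinylated RAS/Bodipy-GDP/Tb-streptavidin TR-FRET complex. Exchange was started with human SOS plus 3 mM GTP. RAS/SOS: G12C 3/40 nM, WT 1/40 nM, NRAS 1.25/40 nM (60 min); G12V 1.25/160 nM (90 min). The 520/495 ratio was fit four-parameter.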
On the technique in general: In TR-FRET formats the signal depends on donor and acceptor labels being close together.

For assay [1], the target named is KRAS-G12C (C51S/C80L/C118S) (Homo sapiens, UniProt P01116, C118S/C51S/C80L/G12C). Put plainly: SOS-catalyzed nucleotide exchange assay (Procedure A, TR-FRET), KRAS-G12C. The format is biochemical. The conditions noted are these: nucleotide exchange, Procedure A; read-out: KRAS G12C GNE IC50. In outline: as §1
In the next assay the target is KRAS-G12D (Homo sapiens, UniProt P01116, G12D). Description: SOS-catalyzed nucleotide exchange assay (Procedure A, TR-FRET), KRAS-G12D. As to conditions: nucleotide exchange, read-out: KRAS G12D GNE IC50. The format is biochemical. In outline: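 Signal ratio (520/495 nm, excitation 340 nm) reports Bodipy-GDP retention on biotinylated RAS after SOS-catalyzed exchange with 3 mM GTP. SOS was 40 nM, except 160 nM for G12V. Room-temperature exchange lasted 60 min (90 min for G12V), following a 60 min compound preincubation.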

The next assay addresses KRAS-G12V (Homo sapiens, UniProt P01116, G12V). Description: SOS-catalyzed nucleotide exchange assay (Procedure A, TR-FRET), KRAS-G12V. The assay is classed as biochemical. The conditions noted are these: nucleotide exchange, read-out: KRAS G12V GNE IC50. Summed up:
as §1

For another assay, the target named is KRAS-G13D (Homo sapiens, UniProt P01116, G13D). Put plainly: SOS-catalyzed nucleotide exchange assay (Procedure A, TR-FRET), KRAS-G13D. The assay is classed as biochemical. The conditions noted are these: nucleotide exchange, Procedure A; read-out: KRAS G13D GNE IC50.
The next assay deals with MKN-1 cells. Put plainly: Cellular phospho-ERK assay, MKN-1 cells (amplified wild-type KRAS). As to conditions: read-out: MKN1 pERK IC50. The format is cell-based. In outline:
(§2)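 ERK phosphorylation relative to total ERK is the endpoint, detected by AlphaScreen-based SureFire multiplex following a 2-hour treatment at 37 °C. Compounds are titrated 1:3 over ten points from 30 μM.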

A further assay relates to AsPC-1 cells. Description: Cellular phospho-ERK assay, AsPC-1 cells (homozygous KRAS-G12D). The assay is classed as cell-based. As to conditions: read-out: AsPC1 pERK IC50. In outline:
as §2

Another assay deals with SW620 cells. Description: Cellular phospho-ERK assay, SW620 cells (homozygous KRAS-G12V). The format is cell-based. As to conditions: read-out: SW620 pERK IC50. In outline: as §2
Setting [2] is: Homo sapiens, amplified wild-type KRAS, 2 hours.
Where [3] appears, read: Homo sapiens, ASPC1, 2 h, KRAS-G12D, 2 hours.
[4] abbreviates: Homo sapiens, SW-620, KRAS-G12V, 2 hours.
Setting [5] is: Homo sapiens, 2 hours compound incubation.
Where [6] appears, read: Homo sapiens, ASPC1, 2 h, 2 hours compound incubation.
Where [7] appears, read: Homo sapiens, SW-620, 2 hours compound incubation.

Usually IC50 stands for the concentration that gives 50% inhibition. For the compound “(6S)-4-(8-(6-chloro- 5-cyclopropyl-1H- indazol-4-yl)-2- (((6'R,7a′R)-6′- fluorodihydro- 1′H,3′H-spiro[cyclo- propane-1,2′-pyr- rolizin]-7a′(5′H)- yl)methoxy)pyrido [4′,3′:4,5]thieno[2,3- d]pyrimidin-4-yl)-6- methyl-1,4-oxaze- pan-6-ol [Ex-218]”, the IC50 is 6.76 nM on KRAS-WT; 77.4 nM in assay [1]; 3.42 nM at KRAS-G12D; 8.69 nM at KRAS-G12V; 7.46 nM on KRAS-G13D; 37.4 nM with MKN-1 cells (2 hours compound incubation). The IC50 with AsPC-1 cells (2 hours compound incubation) was 31.9 nM; with SW620 cells (2 hours compound incubation), 20.2 nM.

For the compound `C[C@@]1(O)COCCN(c2nc(OC[C@@]34CCCN3C/C(=C\F)C4)nc3sc4c(-c5c(C6(F)CC6)c(C(F)(F)F)cc6[nH]ncc56)nccc4c23)C1` [Ex-56, (6S)-4-(8-(5-(1-fluorocyclopropyl)-6-(trifluoromethyl)-1H-indazol-4-yl)-2-(((S,Z)-2-(fluoromethylene)tetrahy-dro-1H-pyrrolizin-7a(5H)-yl)methoxy)pyrido[4′,3′:4,5]thi-eno[2,3-d]pyrimidin-4-yl)-6-methyl-1,4-oxazepan-6-ol], the IC50 at KRAS-WT was determined as 26.5 nM; in assay [1], 128 nM; on KRAS-G12D it was 9.15 nM; at KRAS-G12V, 32.6 nM; at KRAS-G13D, 22.6 nM; in the assay with MKN-1 cells (setting [2]), 45.6 nM. The figures for the IC50 with AsPC-1 cells (setting [3]) and with SW620 cells (setting [4]) were 48.9 nM and 57.5 nM, respectively.

Consider `C[C@@]1(O)COCCN(c2nc(OC[C@@]34CCCN3C[C@H](F)C4)nc3sc4c(-c5c(C6CC6)c(C(F)(F)F)cc6[nH]ncc56)nccc4c23)C1` [Ex-76, (6S)-4-(8-(5-cyclopropyl-6-(trifluoromethyl)-1H-indazol-4-yl)-2-(((2R,7aS)-2-fluorotetrahydro-1H-pyrrolizin-7a(5H)-yl)methoxy)pyrido[4′,3′:4,5]thi-eno[2,3-d]pyrimidin-4-yl)-6-methyl-1,4-oxazepan-6-ol], for which the IC50 came out at 8.47 nM at KRAS-WT; 55.8 nM in assay [1]; 5.46 nM at KRAS-G12D; 20.4 nM at KRAS-G12V; 7.22 nM on KRAS-G13D; 28.1 nM in the assay on MKN-1 cells (setting [2]). The IC50 turned out to be 24.1 nM in the assay with AsPC-1 cells (setting [3]) and 18.5 nM in the assay on SW620 cells (setting [4]).

Consider `C#Cc1cc(F)cc2cc3[nH]ncc3c(-c3nccc4c3sc3nc(OC[C@@]56CCCN5C[C@H](F)C6)nc(N5CCOC[C@@](C)(O)C5)c34)c12` [Ex-165], for which the IC50 on KRAS-WT was 18.6 nM; in assay [1] it was 21.7 nM; at KRAS-G12D, 6.79 nM; at KRAS-G12V, 11 nM; at KRAS-G13D it was 14.1 nM; in the assay on MKN-1 cells (setting [5]) it was 41.5 nM. The IC50 stood at 40.7 nM with AsPC-1 cells (setting [6]) and 31.2 nM in the assay with SW620 cells (setting [7]).

As for `C[C@@]1(O)COCCN(c2nc(OC[C@@]34CCCN3C[C@H](F)C4)nc3sc4c(-c5c(C6CCC6)c(Cl)cc6[nH]ncc56)nccc4c23)C1` [Ex-69, (6S)-4-(8-(6-chloro-5-cyclobutyl-1H-indazol-4-yl)-2-(((2R,7aS)-2-fluorotetrahydro-1H-pyrrolizin-7a(5H)-yl)methoxy)pyrido[4′,3′:4,5]thi-eno[2,3-d]pyrimidin-4-yl)-6-methyl-1,4-oxazepan-6-ol], the half-maximal inhibitory concentration (IC50) was 28.6 nM on KRAS-WT; 20.4 nM in assay [1]; 6.79 nM at KRAS-G12D; 10.2 nM at KRAS-G12V; 12.5 nM at KRAS-G13D; 52.7 nM in the assay on MKN-1 cells (setting [2]). In addition, the IC50 in the assay on AsPC-1 cells (setting [3]) was 68.5 nM; in the assay with SW620 cells (setting [4]), 51.9 nM.

`C[C@@]1(O)COCCN(c2nc(OC[C@@]34CCCN3C[C@@]3(CC3(F)F)C4)nc3sc4c(-c5c(C6CC6)c(Cl)cc6[nH]ncc56)nccc4c23)C1` [Ex-211, (6S)-4-(8-(6-chloro-5-cyclopropyl-1H-indazol-4-yl)-2-(((1S,7a′S)-2,2-difluorodihydro-1′H,3′H-spiro[cyclo-propane-1,2′-pyrrol-izin]-7a′(5′H)-yl)-methoxy)pyrido [4′,3′:4,5]thieno[2,3-d]pyrimidin-4-yl)-6-methyl-1,4-oxaze-pan-6-ol]: the IC50 at KRAS-WT worked out at 16.5 nM; in assay [1], 45.4 nM; on KRAS-G12D it was 5.85 nM; on KRAS-G12V it was 12.1 nM; on KRAS-G13D, 15 nM; in the assay with MKN-1 cells (setting [5]), 83 nM. In addition, the IC50 in the assay on AsPC-1 cells (setting [6]) worked out at 56.9 nM; with SW620 cells (setting [7]), 49.4 nM.

In the case of `Cc1cc2[nH]ncc2c(-c2nncc3c2sc2nc(OC[C@@]45CCCN4C[C@H](F)C5)nc(N4CCOC[C@@](C)(O)C4)c23)c1C1CC1` [Ex-279, (6S)-4-(8-(5-cyclopropyl-6-methyl-1H-indazol-4-yl)-2-(((2R,7aS)-2-fluorotetrahydro-1H-pyrrolizin-7a(5H)-yl)methoxy)pyrimi-do[5′,4′:4,5]thieno[2,3-d]pyridazin-4-yl)-6-methyl-1,4-oxazepan-6-ol], the IC50 at KRAS-WT amounted to 13.6 nM; in assay [1], 97.6 nM; on KRAS-G12D, 5.15 nM; on KRAS-G12V it was 16 nM; at KRAS-G13D it was 7.59 nM; in the assay on MKN-1 cells (setting [2]), 43 nM. The IC50 in the assay on AsPC-1 cells (setting [3]) worked out at 114 nM; in the assay on SW620 cells (setting [4]), 99.8 nM.

Regarding `C=C(F)c1c(C(F)(F)F)cc2[nH]ncc2c1-c1nccc2c1sc1nc(OC[C@@]34CCCN3C[C@H](F)C4)nc(N3CCOC[C@@](C)(O)C3)c12` [Ex-58, (6S)-4-(2-(((2R,7aS)-2-fluorotetrahydro-1H-pyrrolizin-7a(5H)-yl)methoxy)-8-(5-(1-fluorovinyl)-6-(trifluoromethyl)-1H-indazol-4-yl)pyrido[4′,3′:4,5]thieno [2,3-d]pyrimidin-4-yl)-6-methyl-1,4-oxazepan-6-ol], the IC50 at KRAS-WT was determined as 17.6 nM; in assay [1], 16.5 nM; on KRAS-G12D, 5.41 nM; at KRAS-G12V, 13.5 nM; at KRAS-G13D it was 10.4 nM; with MKN-1 cells (setting [2]) it was 35.5 nM. The IC50 was 57.1 nM with AsPC-1 cells (setting [3]) and 36.2 nM with SW620 cells (setting [4]).

Regarding `C[C@@]1(O)COCCN(c2nc(OC[C@@]34CCCN3C[C@H](F)C4)nc3sc4c(-c5c(C6CC6)c(Cl)cc6[nH]ncc56)nccc4c23)C1` [Ex-144, (6S)-4-(8-(6-chloro-5-cyclopropyl-1H-indazol-4-yl)-2-(((2R,7aS)-2-fluoro-tetrahydro-1H-pyr-rolizin-7a(5H)-yl)-methoxy)pyrido [4′,3′:4,5]thieno[2,3-d]pyrimidin-4-yl)-6-methyl-1,4-oxaze-pan-6-ol], the IC50 on KRAS-WT came to 14.6 nM; in assay [1], 46 nM; on KRAS-G12D, 6.2 nM; at KRAS-G12V, 14.3 nM; at KRAS-G13D, 10.7 nM; in the assay on MKN-1 cells (setting [5]), 53.2 nM. In addition, the IC50 is 41.7 nM with AsPC-1 cells (setting [6]) and 73 nM with SW620 cells (setting [7]).

`Cc1cc2[nH]ncc2c(-c2nccc3c2sc2nc(OC[C@@]45CCCN4C[C@H](F)C5)nc(NC4(CO)COC4)c23)c1C(F)(F)F` [Ex-185, (3-((2-(((2R,7aS)-2-fluoro-tetrahydro-1H-pyrrolizin-7a(5H)-yl)methoxy)-8-(6-methyl-5-(trifluoromethyl)-1H-indazol-4-yl)pyrido [4′,3′:4,5]thieno[2,3-d]pyr-imidin-4-yl)amino)oxetan-3-yl)methanol]: the IC50 worked out at 1370 nM at KRAS-WT; 146 nM in assay [1]; 482 nM on KRAS-G12D; 319 nM on KRAS-G12V; 842 nM on KRAS-G13D; 4580 nM in the assay with AsPC-1 cells (setting [6]).

Regarding `C#Cc1cccc2[nH]nc(-c3nccc4c3sc3nc(OC[C@@]56CCCN5C[C@H](F)C6)nc(N5CCOC[C@@](C)(O)C5)c34)c12` [Ex-159, (S)-4-(8-(4-ethynyl-1H-indazol-3-yl)-2-(((2R,7aS)-2-fluorotetrahydro-1H-pyrrolizin-7a(5H)-yl)methoxy)pyrido[4′,3′:4,5]thieno[2,3-d]pyrimidin-4-yl)-6-methyl-1,4-oxazepan-6-ol], the IC50 on KRAS-WT worked out at 658 nM; in assay [1], 48.3 nM; at KRAS-G12D, 260 nM; on KRAS-G12V, 118 nM; at KRAS-G13D, 328 nM; in the assay on AsPC-1 cells (setting [6]) it was 1170 nM.
